Laboratory results reported in PMC7235871, “Excretion of the Polymyxin Derivative NAB739 in Murine Urine” (Antibiotics, 2020).
Positions of bridges follow the written chain, without caps; N, C: chain ends. Non-standard residues stand in square brackets, D forms with d. Residues, ends and D or L forms follow the SMILES beside them. *: point of attachment. Octanoyl = CCCCCCCC(=O)*; Dab = NCC[C@H](N)C(=O)O

Assays:
[1] = cynomolgus monkey, in vivo; cited from earlier work
[2] = cynomolgus monkey, in vivo; cited from earlier work; remark: listed apart in the source
[3] = Plasma concentrations (PK) in NMRI mice after SC administration; format: in vivo
Protocol: (§1) NMRI female mice (10–12 weeks old, 29–32 g, n = 64) were obtained from ENVIGO (The Netherlands) and housed prior to treatment under standard conditions (acclimatization period of 1 week, 21–23 °C, 12-h light/dark cycle, relative humidity 45%–65%) with unlimited access to food (R70 diet from Lantmännen) and water. The experimental procedures were performed in accordance with the guidelines of the European Community and local laws and policies (Directive 2010/63/EU), and all of the procedures were approved by Food and Veterinary Service, Riga, Latvia. Studies involving animals are reported in accordance with the ARRIVE guidelines. Animals were weighed on the day of the treatment (before treatment) to calculate the required amount of compound for the corresponding dose. For PK and excretion studies the mice were dosed subcutaneously (SC) via a bolus injection (injection volume 10 mL/kg). Four consecutive doses were administrated twice a day at 9:00 AM and 15:00 PM over the course of two days.
Blood samples were collected in tubes containing heparin. Blood was sampled from tail vein 15, 30, and 45 min after the first and last administrations of the compounds. Tubes were centrifuged at +4 °C 10,000× g for 3 min. Plasma samples were collected and stored at −20 °C until analysis.
(§2) Plasma and urine sample analyses were performed using the quantitative UPLC/MS/MS method. Calibration standards and quality control samples for plasma analysis were prepared by spiking blank mouse plasma (CD-1, anticoagulant Na Heparin, Innovative Research, USA) with a stock solution of analyte to achieve a nominal concentration ranging from 0.01 to 50 μg/mL for NAB739 and PMB. Calibration standards and quality control samples for urine analysis were prepared by spiking blank mouse urine (mouse CD-1 urine, Sera Laboratories International Ltd., UK) with a stock solution of analytes to achieve a nominal concentration from 0.04 to 30 μg/mL for NAB739 and PMB.
(§3) A sample volume of 20 μL (calibration standards, quality controls or analytical samples in plasma or urine) was transferred into the plastic tube and mixed with 100 μL of 1% formic acid solution in acetonitrile/methanol (3:1, v/v) mixture to precipitate proteins. The tubes were vortex- mixed and centrifuged at 10,000 rpm for 10 min. Then, 100 μL of supernatant was diluted with 400 μL of water and subjected to UPLC/MS analysis as follows:
(§4) UPLC system Acquity H-class (Waters) connected with triple quadrupole mass spectrometer Xevo TQ-S (Waters). UPLC conditions: Column—Acquity BEH C18 (2.1 × 50 mm, 1.7 µm); Mobile phase—A: 0.1% Formic acid aqueous solution, B: Acetonitrile; Gradient: Initial—90%A, 2.5 min—5% A, 4.0 min—5% A, 4.5 min—90% A, 6 min—90% A; Flow—0.3 mL/min; Column temperature—40 °C; Injection volume—1 μL (NAB739) or 5 μL (PMB). MS conditions: Ionization—ESI positive mode; Capillary voltage—1.0 kV; ESI source temperature—120 °C; Desolvation gas (N2) flow—800 L/h; Desolvation temperature—600 °C.

E. coli = details: murine E. coli pyelonephritis, cited from earlier work; for Half maximal effective dose (ED50) in kidneys: bacterial burden in kidneys
[4] = Urinary elimination in NMRI mice after SC administration (pooled 0–3 h urine); format: in vivo
Protocol: as §1
For PK study, before the administration of the compound, mice voiding was stimulated. Then compound was administrated SC. Mice were put in separate cages with LabSand (USA) and urine was collected during the next 3 h. At the end of each 1-h period voiding was stimulated by gentle massage of the belly. Urine samples from each mouse were pooled in one tube. Urine volume was determined by weighing of the pooled urine sample.
as §2, §3, §4

[5] = design: method as in PMID 18840079; details: patients; cited from earlier work
[6] = Observation of adverse effects during administration in mice; format: in vivo, NMRI mice; details: SC, doses 0.25, 0.5, 1, 2 and 4 mg/kg, single and four-times-repeated
Protocol: as §1

Molecule	Nephrotoxicity compared to PMB [1]	Excretion in urine [2]	Plasma concentration ([3]; female, NMRI, mouse, in vivo, sc, 0.5 mg/kg)	Linearity of Cmax and dose–response relationship, correlation coefficient ([3]; mouse, in vivo, sc)	Half maximal effective dose (ED50) in kidneys (E. coli)	Fold lower dose than PMB reducing bacterial burden in kidney, urine and bladder (E. coli)	Urinary concentration ([4]; female, NMRI, mouse, in vivo, sc, 4 mg/kg)	Relative elimination by urine higher after the last dose than after the first dose, average ([4]; mouse, in vivo)	Urine concentration higher after the last dose compared to the first dose, average ([4]; mouse, in vivo)	Detection in urine samples ([4]; mouse, in vivo, sc, 4 mg/kg)	Part of dose excreted in urine [5]	Plasma concentrations after the first versus the last administration ([3]; SC, four doses)	Time at which Cmax was observed after administration ([3]; plasma, SC, all doses 0.25–4 mg/kg)	Linearity of Cmax and dose–response relationship, correlation coefficient ([3]; plasma, first SC administration, doses 0.25–4 mg/kg)	Adverse effects during administration [6]	Detection in urine samples ([4]; SC dose of 4 mg/kg, pooled 0–3 h urine)	Detection in urine ([4]; after the fourth SC dose at 4 mg/kg, detection limit 0.6 µg/mL)
CCCCCCCC(=O)N[C@H](C(=O)N[C@H](CO)C(=O)N[C@H]1CCNC(=O)[C@H]([C@@H](C)O)NC(=O)[C@H](CCN)NC(=O)[C@H](CCN)NC(=O)[C@H](CC(C)C)NC(=O)[C@@H](Cc2ccccc2)NC(=O)[C@H](CCN)NC1=O)[C@@H](C)O [NAB739] (Octanoyl-T[dS][Dab][Dab][dF]L[Dab][Dab]T; lactam 3-C; N-terminus assumed)	less nephrotoxic	excreted in the cynomolgus urine at a very significant extent	exceeded 1 µg/mL	0.9987	0.24 mg/kg	approximately 10 fold	above 35 µg/mL	26%	27%	found in all pooled (0–3 h) urine samples							
polymyxin B [PMB, reference compound]					2.1 mg/kg						less than 1%	similar	30 min	0.975	no adverse effects were observed	not detected	not found
